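Briefly, cells in 96-well plates were exposed to five compound concentrations for 48 h, and endpoints were estimated by linear interpolation. Here, GI50 denotes the concentration required for 50% inhibition of growth. TGI denotes the concentration required for complete inhibition of growth.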
Tests used:
Assay in all cases: NCI anticancer screen, dose series, 48 h; in the data active = GI50 below about 0.43 µM; inactive = the rest
786-0 renal = test system: 786-0 renal
A498 renal = test system: A498 renal
A549 NSCLC = test system: A549 NSCLC
ACHN renal = test system: ACHN renal
BT-549 breast = test system: BT-549 breast
CAKI-1 renal = test system: CAKI-1 renal
CCRF-CEM leukemia = test system: CCRF-CEM leukemia
COLO 205 colon = test system: COLO 205 colon
DU-145 prostate = test system: DU-145 prostate
EKVX NSCLC = test system: EKVX NSCLC
HCC-2998 colon = test system: HCC-2998 colon
HCT-116 colon = test system: HCT-116 colon
HCT-15 colon = test system: HCT-15 colon
HOP-62 NSCLC = test system: HOP-62 NSCLC
HOP-92 NSCLC = test system: HOP-92 NSCLC
HS 578T breast = test system: HS 578T breast
HT29 colon = test system: HT29 colon
IGROV1 ovarian = test system: IGROV1 ovarian
K-562 leukemia = test system: K-562 leukemia
KM12 colon = test system: KM12 colon
LOX IMVI melanoma = test system: LOX IMVI melanoma
M14 melanoma = test system: M14 melanoma
MALME-3M melanoma = test system: MALME-3M melanoma
MCF7 breast = test system: MCF7 breast
MDA-MB-231 breast = test system: MDA-MB-231 breast
MDA-MB-435 = test system: MDA-MB-435
MOLT-4 leukemia = test system: MOLT-4 leukemia
NCI-H226 lung = test system: NCI-H226 lung
NCI-H23 lung = test system: NCI-H23 lung
NCI-H460 lung = test system: NCI-H460 lung
NCI-H522 lung = test system: NCI-H522 lung
NCI/ADR-RES ovarian = test system: NCI/ADR-RES ovarian
OVCAR-3 ovarian = test system: OVCAR-3 ovarian
OVCAR-4 ovarian = test system: OVCAR-4 ovarian
OVCAR-5 ovarian = test system: OVCAR-5 ovarian
OVCAR-8 ovarian = test system: OVCAR-8 ovarian
PC-3 prostate = test system: PC-3 prostate
RPMI-8226 leukemia = test system: RPMI-8226 leukemia
RXF 393 renal = test system: RXF 393 renal
SF-268 CNS = test system: SF-268 CNS
SF-295 CNS = test system: SF-295 CNS
SF-539 CNS = test system: SF-539 CNS
SK-MEL-2 melanoma = test system: SK-MEL-2 melanoma
SK-MEL-28 melanoma = test system: SK-MEL-28 melanoma
SK-MEL-5 melanoma = test system: SK-MEL-5 melanoma
SK-OV-3 ovarian = test system: SK-OV-3 ovarian
SN12C renal = test system: SN12C renal
SNB-19 CNS = test system: SNB-19 CNS
SNB-75 CNS = test system: SNB-75 CNS
SR leukemia = test system: SR leukemia
SW-620 colon = test system: SW-620 colon
T-47D breast = test system: T-47D breast
TK-10 renal = test system: TK-10 renal
U251 CNS = test system: U251 CNS
UACC-257 melanoma = test system: UACC-257 melanoma
UACC-62 melanoma = test system: UACC-62 melanoma
UO-31 renal = test system: UO-31 renal
HL-60(TB) leukemia = test system: HL-60(TB) leukemia

CC[C@@]1(c2ccccc2)C2=C(CC(C)(C)CC2=O)Nc2[nH]ncc21
inactive: GI50 (786-0 renal) > 100 µM | GI50 (A498 renal) 16.7 µM | GI50 (A549 NSCLC) > 100 µM | GI50 (ACHN renal) > 100 µM | GI50 (BT-549 breast) > 100 µM | GI50 (CAKI-1 renal) 51.9 µM | GI50 (CCRF-CEM leukemia) 31.8 µM | GI50 (COLO 205 colon) > 100 µM | GI50 (DU-145 prostate) > 100 µM | GI50 (EKVX NSCLC) > 100 µM | GI50 (HCC-2998 colon) > 100 µM | GI50 (HCT-116 colon) > 100 µM | GI50 (HCT-15 colon) 89 µM | GI50 (HOP-62 NSCLC) > 100 µM | GI50 (HOP-92 NSCLC) > 100 µM | GI50 (HS 578T breast) 96.4 µM | GI50 (HT29 colon) > 100 µM | GI50 (IGROV1 ovarian) > 100 µM | GI50 (K-562 leukemia) > 100 µM | GI50 (KM12 colon) > 100 µM | GI50 (LOX IMVI melanoma) > 100 µM | GI50 (M14 melanoma) > 100 µM | GI50 (MALME-3M melanoma) > 100 µM | GI50 (MCF7 breast) > 100 µM | GI50 (MDA-MB-231 breast) > 100 µM | GI50 (MDA-MB-435) > 100 µM | GI50 (MOLT-4 leukemia) > 100 µM | GI50 (NCI-H226 lung) > 100 µM | GI50 (NCI-H23 lung) > 100 µM | GI50 (NCI-H460 lung) > 100 µM | GI50 (NCI-H522 lung) > 100 µM | GI50 (NCI/ADR-RES ovarian) > 100 µM | GI50 (OVCAR-3 ovarian) > 100 µM | GI50 (OVCAR-4 ovarian) > 100 µM | GI50 (OVCAR-5 ovarian) > 100 µM | GI50 (OVCAR-8 ovarian) > 100 µM | GI50 (PC-3 prostate) > 100 µM | GI50 (RPMI-8226 leukemia) > 100 µM | GI50 (RXF 393 renal) > 100 µM | GI50 (SF-268 CNS) > 100 µM | GI50 (SF-295 CNS) > 100 µM | GI50 (SF-539 CNS) > 100 µM | GI50 (SK-MEL-2 melanoma) > 100 µM | GI50 (SK-MEL-28 melanoma) > 100 µM | GI50 (SK-MEL-5 melanoma) > 100 µM | GI50 (SK-OV-3 ovarian) > 100 µM | GI50 (SN12C renal) > 100 µM | GI50 (SNB-19 CNS) > 100 µM | GI50 (SNB-75 CNS) 14.9 µM | GI50 (SR leukemia) > 100 µM | GI50 (SW-620 colon) > 100 µM | GI50 (T-47D breast) > 100 µM | GI50 (TK-10 renal) > 100 µM | GI50 (U251 CNS) > 100 µM | GI50 (UACC-257 melanoma) > 100 µM | GI50 (UACC-62 melanoma) > 100 µM | GI50 (UO-31 renal) > 100 µM
> 100 µM: TGI (786-0 renal) | TGI (A549 NSCLC) | TGI (ACHN renal) | TGI (BT-549 breast) | TGI (CAKI-1 renal) | TGI (CCRF-CEM leukemia) | TGI (COLO 205 colon) | TGI (DU-145 prostate) | TGI (EKVX NSCLC) | TGI (HCC-2998 colon) | TGI (HCT-116 colon) | TGI (HCT-15 colon) | TGI (HOP-62 NSCLC) | TGI (HOP-92 NSCLC) | TGI (HS 578T breast) | TGI (HT29 colon) | TGI (IGROV1 ovarian) | TGI (K-562 leukemia) | TGI (KM12 colon) | TGI (LOX IMVI melanoma) | TGI (M14 melanoma) | TGI (MALME-3M melanoma) | TGI (MCF7 breast) | TGI (MDA-MB-231 breast) | TGI (MDA-MB-435) | TGI (MOLT-4 leukemia) | TGI (NCI-H226 lung) | TGI (NCI-H23 lung) | TGI (NCI-H460 lung) | TGI (NCI-H522 lung) | TGI (NCI/ADR-RES ovarian) | TGI (OVCAR-3 ovarian) | TGI (OVCAR-4 ovarian) | TGI (OVCAR-5 ovarian) | TGI (OVCAR-8 ovarian) | TGI (PC-3 prostate) | TGI (RPMI-8226 leukemia) | TGI (RXF 393 renal) | TGI (SF-268 CNS) | TGI (SF-295 CNS) | TGI (SF-539 CNS) | TGI (SK-MEL-2 melanoma) | TGI (SK-MEL-28 melanoma) | TGI (SK-MEL-5 melanoma) | TGI (SK-OV-3 ovarian) | TGI (SN12C renal) | TGI (SNB-19 CNS) | TGI (SNB-75 CNS) | TGI (SR leukemia) | TGI (SW-620 colon) | TGI (T-47D breast) | TGI (TK-10 renal) | TGI (U251 CNS) | TGI (UACC-257 melanoma) | TGI (UACC-62 melanoma) | TGI (UO-31 renal)
56.3 µM: TGI (A498 renal)

CCCCCCCCn1ccc2cc(NC(=O)Cn3cc(CN4CCCC4)nn3)ccc21
5.9 µM: TGI (MOLT-4 leukemia)
2.93 µM: TGI (SNB-75 CNS)
5.17 µM: TGI (RPMI-8226 leukemia)
3.98 µM: TGI (KM12 colon)
3.79 µM: TGI (HCT-15 colon)
4.49 µM: TGI (NCI/ADR-RES ovarian)
3.39 µM: TGI (BT-549 breast)
2.89 µM: TGI (MALME-3M melanoma)
4.74 µM: TGI (HS 578T breast)
3.35 µM: TGI (A498 renal) | TGI (M14 melanoma)
3.59 µM: TGI (IGROV1 ovarian)
3.82 µM: TGI (COLO 205 colon)
> 100 µM: TGI (CCRF-CEM leukemia)
3.32 µM: TGI (HCT-116 colon)
3.13 µM: TGI (786-0 renal)
3.8 µM: TGI (HL-60(TB) leukemia) | TGI (NCI-H23 lung)
4.09 µM: TGI (HT29 colon) | TGI (OVCAR-8 ovarian)
3.37 µM: TGI (RXF 393 renal)
3.29 µM: TGI (SN12C renal)
3.07 µM: TGI (ACHN renal)
3.66 µM: TGI (SK-MEL-2 melanoma)
4.9 µM: TGI (OVCAR-3 ovarian)
3.9 µM: TGI (K-562 leukemia)
3.57 µM: TGI (SF-268 CNS) | TGI (UACC-257 melanoma)
2.88 µM: TGI (UO-31 renal)
4 µM: TGI (EKVX NSCLC) | TGI (OVCAR-5 ovarian)
3.28 µM: TGI (CAKI-1 renal)
3.18 µM: TGI (SK-MEL-5 melanoma)
9.61 µM: TGI (DU-145 prostate)
3.01 µM: TGI (LOX IMVI melanoma)
6.34 µM: TGI (SR leukemia)
3.76 µM: TGI (T-47D breast)
18.1 µM: TGI (OVCAR-4 ovarian)
3.72 µM: TGI (SF-295 CNS)
3.3 µM: TGI (TK-10 renal)
3.49 µM: TGI (HOP-62 NSCLC) | TGI (MDA-MB-231 breast)
3.16 µM: TGI (NCI-H226 lung) | TGI (U251 CNS) | TGI (UACC-62 melanoma)
3.51 µM: TGI (NCI-H460 lung) | TGI (SK-OV-3 ovarian)
3.63 µM: TGI (A549 NSCLC)
3.6 µM: TGI (NCI-H522 lung) | TGI (SW-620 colon)
inactive: GI50 (786-0 renal) 1.69 µM | GI50 (A498 renal) 1.7 µM | GI50 (A549 NSCLC) 1.83 µM | GI50 (ACHN renal) 1.69 µM | GI50 (BT-549 breast) 1.65 µM | GI50 (CAKI-1 renal) 1.76 µM | GI50 (CCRF-CEM leukemia) 2.9 µM | GI50 (COLO 205 colon) 1.99 µM | GI50 (DU-145 prostate) 3.12 µM | GI50 (EKVX NSCLC) 1.82 µM | GI50 (HCC-2998 colon) 1.73 µM | GI50 (HCT-116 colon) 1.7 µM | GI50 (HCT-15 colon) 1.84 µM | GI50 (HL-60(TB) leukemia) 1.83 µM | GI50 (HOP-62 NSCLC) 1.75 µM | GI50 (HS 578T breast) 1.91 µM | GI50 (HT29 colon) 1.97 µM | GI50 (IGROV1 ovarian) 1.74 µM | GI50 (K-562 leukemia) 1.91 µM | GI50 (KM12 colon) 1.95 µM | GI50 (LOX IMVI melanoma) 1.62 µM | GI50 (M14 melanoma) 1.79 µM | GI50 (MALME-3M melanoma) 1.52 µM | GI50 (MCF7 breast) 1.71 µM | GI50 (MDA-MB-231 breast) 1.84 µM | GI50 (MDA-MB-435) 1.73 µM | GI50 (MOLT-4 leukemia) 2.41 µM | GI50 (NCI-H226 lung) 1.59 µM | GI50 (NCI-H23 lung) 1.92 µM | GI50 (NCI-H460 lung) 1.82 µM | GI50 (NCI-H522 lung) 1.75 µM | GI50 (NCI/ADR-RES ovarian) 2.08 µM | GI50 (OVCAR-3 ovarian) 2.13 µM | GI50 (OVCAR-4 ovarian) 4.97 µM | GI50 (OVCAR-5 ovarian) 1.78 µM | GI50 (OVCAR-8 ovarian) 2 µM | GI50 (RPMI-8226 leukemia) 2.18 µM | GI50 (RXF 393 renal) 1.6 µM | GI50 (SF-268 CNS) 1.78 µM | GI50 (SF-295 CNS) 1.87 µM | GI50 (SF-539 CNS) 1.73 µM | GI50 (SK-MEL-2 melanoma) 1.86 µM | GI50 (SK-MEL-5 melanoma) 1.79 µM | GI50 (SK-OV-3 ovarian) 1.81 µM | GI50 (SN12C renal) 1.74 µM | GI50 (SNB-19 CNS) 1.73 µM | GI50 (SNB-75 CNS) 1.52 µM | GI50 (SR leukemia) 2.3 µM | GI50 (SW-620 colon) 1.86 µM | GI50 (T-47D breast) 1.73 µM | GI50 (TK-10 renal) 1.71 µM | GI50 (U251 CNS) 1.7 µM | GI50 (UACC-257 melanoma) 1.86 µM | GI50 (UACC-62 melanoma) 1.7 µM | GI50 (UO-31 renal) 1.54 µM
3.34 µM: TGI (MCF7 breast) | TGI (SNB-19 CNS)
3.19 µM: TGI (SF-539 CNS)
3.24 µM: TGI (MDA-MB-435)
3.17 µM: TGI (HCC-2998 colon)
